Measured values published in patent US6599925B2 (Wyeth, priority 2001, dated 2003).
Structures can show the parent of a compound that is named as a salt.

Experiments:
[1] = target: T1, recombinant human plasminogen activator inhibitor-1 (PAI-1) (Homo sapiens, UniProt P05121); test: Primary Screen for the PAI-1 Inhibition (chromogenic tPA assay); format: biochemical; details: for IC50: footnote b: determined by a modification of the Primary Screen for PAI-1 Inhibition; for inhibition at 25 µM: 25 μM test compound
T1 construct: purchased Molecular Innovations, Royal Oak, Mich
T1 sequence (P05121 24-402): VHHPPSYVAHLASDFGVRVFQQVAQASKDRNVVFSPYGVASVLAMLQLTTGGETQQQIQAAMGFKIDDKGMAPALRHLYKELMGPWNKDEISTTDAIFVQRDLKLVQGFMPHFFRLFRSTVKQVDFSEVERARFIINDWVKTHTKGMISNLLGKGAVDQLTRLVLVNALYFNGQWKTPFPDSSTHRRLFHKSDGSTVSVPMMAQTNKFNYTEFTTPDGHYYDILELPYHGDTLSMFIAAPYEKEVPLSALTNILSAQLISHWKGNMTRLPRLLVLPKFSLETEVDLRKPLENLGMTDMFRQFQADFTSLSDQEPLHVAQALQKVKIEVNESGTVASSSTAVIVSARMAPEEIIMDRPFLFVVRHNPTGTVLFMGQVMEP
Protocol: Primary Screen for the PAI-1 Inhibition
Test compounds are dissolved in DMSO at a final concentration of 10 mM, then diluted 100×in physiologic buffer. The inhibitory assay is initiated by the addition of the test compound (1-100 μM final concentration, maximum DMSO concentration of 0.2%) in a pH 6.6 buffer containing 140 nM recombinant human plasminogen activator inhibitor-1 (PAI-1; Molecular Innovations, Royal Oak, Mich.). Following a 1 hour incubation at room temperature, 70 nM of recombinant human tissue plasminogen activator (tPA) is added, and the combination of the test compound, PAI-1 and tPA is incubated for an additional 30 minutes. Following the second incubation, Spectrozyme-tPA (American Diagnostica, Greenwich, Conn.), a chromogenic substrate for tPA, is added and absorbance read at 405 nm at 0 and 60 minutes. Relative PAI-1 inhibition is equal to the residual tPA activity in the presence of the test compounds and PAI-1. Control treatments include the complete inhibition of tPA by PAI-1 at the molar ratio employed (2:1), and the absence of any effect of the test compound on tPA alone.

SMILES	melting point	IC50 [1] [µM]	inhibition at 25 µM [1] [%]
CCCCC(=O)c1c(-c2ccc3c(-c4ccc(C(F)(F)F)cc4)c(OCC(=O)O)ccc3c2)oc2ccccc12 (as salt: sodium) [Example 15, 2-({6-(3-Pentanoyl-1-benzofuran-2-yl)-1-[4-(trifluoromethyl)phenyl]-2-naphthyl}oxy) acetic acid, sodium salt]	274 to 275 °C (dec.)	–	–
CCCCC(=O)c1c(-c2ccc3cc(OCC(=O)O)ccc3c2)oc2ccccc12 [Example 2, 2-{[6-(3-pentanoyl-1-benzofuran-2-yl)-2-naphthyl]oxy}acetic acid]	130 to 132 °C	–	43
CCCCC(=O)c1c(-c2ccc3c(Br)c(OCC(=O)O)ccc3c2)oc2ccccc12 [Example 5, 2-{[1-Bromo-6-(3-pentanoyl-1-benzofuran-2-yl)-2-naphthyl]oxy}acetic acid]	146 to 147 °C	–	47
CC(C)CC(=O)c1c(-c2ccc3c(Br)c(OCC(=O)O)ccc3c2)oc2ccccc12 [Example 7]	–	14.7	–
CC(C)CC(=O)c1c(-c2ccc3cc(OCC(=O)O)cc(Br)c3c2)oc2ccccc12 [Example 7]	140 to 142 °C	–	–
CC(C)(C)CC(=O)c1c(-c2ccc3c(Br)c(OCC(=O)O)ccc3c2)oc2ccccc12 [Example 8, 2-({1-Bromo-6-[3-(3,3-dimethylbutanoyl)-1-benzofuran-2-yl]-2-naphthyl}oxy)acetic acid]	151 to 153 °C	11.9	–
O=C(O)COc1ccc2cc(-c3oc4ccccc4c3C(=O)CC3CCCC3)ccc2c1 [Example 10, 2-({6-[3-(2-Cyclopentylacetyl)-1-benzofuran-2-yl]-2-naphthyl}oxy)acetic acid]	177 to 178 °C	–	–
CCCCC(=O)c1c(-c2ccc3c(-c4ccc(C(F)(F)F)cc4)c(OCc4nnn[nH]4)ccc3c2)oc2ccccc12 [Example 18, 1-(2-{6-(1H-1,2,3,4-Tetraazol-5-ylmethoxy)-5-[4-(trifluoromethyl)phenyl]-2-naphthyl}-1-benzofuran-3-yl)-1-pentanone]	189 to 191 °C	6	–
CCCCC(=O)c1c(-c2ccc3c(Br)c(OC(Cc4ccccc4)C(=O)O)ccc3c2)oc2ccccc12 (centres unmarked) [Example 19, 2-{[1-Bromo-6-(3-pentanoyl-1-benzofuran-2-yl)-2-naphthyl]oxy}-3-phenylpropanoic acid]	115 to 117 °C	6.2	–

Other lines, results leading:

melting point	IC50 [1] [µM]	inhibition at 25 µM [1] [%]	SMILES
–	7.7	–	CCCCC(=O)c1c(-c2ccc3c(Br)c(OCc4nnn[nH]4)ccc3c2)oc2ccccc12 [Example 1, 1-{2-[5-Bromo-6-(1H-1,2,3,4-tetraazol-5-ylmethoxy)-2-naphthyl]-1-benzofuran-3-yl}-1-pentanone]
150 to 151 °C	12.7	–	CCCCC(=O)c1c(-c2ccc3cc(OCc4nnn[nH]4)ccc3c2)oc2ccccc12 [Example 3, 1-{2-[6-(1H-1,2,3,4-Tetraazol-5-ylmethoxy)-2-naphthyl]-1-benzofuran-3-yl}-1-pentanone]
155 to 156 °C	–	24	O=C(O)COc1ccc2cc(-c3oc4ccccc4c3CCC3CCCC3)ccc2c1Br [Example 11, 2-({1-Bromo-6-[3-(2-cyclopentylethyl)-1-benzofuran-2-yl]-2-naphthyl}oxy)acetic acid]
192 to 194 °C	–	–	Brc1c(OCc2nnn[nH]2)ccc2cc(-c3oc4ccccc4c3CCC3CCCC3)ccc12 [Example 12, 5-[({1-Bromo-6-[3-(2-cyclopentylethyl)-1-benzofuran-2-yl]-2-naphthyl}oxy)methyl]-1H-1,2,3,4-tetraazole]
169 to 171 °C (dec.)	–	31	CCCCCc1c(-c2ccc3c(C)c(OCc4nnn[nH]4)ccc3c2)oc2ccccc12 [Example 21, 5-({[1-Methyl-6-(3-pentyl-1-benzofuran-2-yl)-2-naphthyl]oxy}methyl)-1H-1,2,3,4-tetraazole]
–	4.59	–	CCCCCc1c(-c2ccc3c(Br)c(OCc4nn[nH]n4)ccc3c2)oc2ccccc12 [Example 37]
